Source: patent US20210254138A1, “SIALIC ACID TRANSPORTER PROTEINS AS BIOMARKERS AND DRUG TARGETS” (Quadram Institute Bioscience, priority 2018, published 2021)

Legend:
[1] = target: RgSBP (RUMGNA_02698); solute-binding protein of the sialic acid ABC transporter, full-length excluding the signal sequence (residues 1-29), N-terminal His-tag …; assay: Isothermal titration calorimetry (ITC) of 2,7-anhydro-Neu5Ac binding to RgSBP (FIG. 4A); parameters: species or system Ruminococcus gnavus ATCC 29149; conditions: 50 mM Tris-HCl pH 7.5, cell protein 100 μM, syringe ligand 2 mM, single-binding site model
Description: The Nan cluster in R. gnavus ATCC 29149 is predicted to encode a putative sialic acid transporter of the SAT2 family, with RUMGNA_02698 predicted to be a solute binding protein (SBP) and RUMGNA_02697 and 02696 predicted to be two permeases (Crost et al., 2013; 2016). To determine the ligand specificity of R. gnavus SBP protein (RgSBP), the corresponding gene was amplified by PCR from the R. gnavus ATCC 29149 genome, cloned and heterologously expressed in E. coli and the His6-tag recombinant protein purified by immobilised metal ion affinity chromatography (IMAC).
The affinity of the interaction between RgSBP and sialic acid ligands was further assessed by ITC.
The full-length RgSBP excluding the signal sequence (residues 1-29), the full length RgNanA and full length RUMGNA_02695 were amplified from R. gnavus ATCC 29149 gDNA, and cloned into the pHISTEV expression system, introducing a His-tag at the N terminus using primers listed in Table S1. DNA manipulation was carried out in E. coli DH5α cells. […] Protein purification was assessed by standard SDS-polyacrylamide gel electrophoresis using NuPAGE Novex 4-12% Bis-Tris gels (Life Technologies, Paisley, UK). Protein concentration was measured with NanoDrop 1000 UV-Vis
Spectrophotometer (Thermo Fischer Scientific, Wilmington, Del.) and using the extinction coefficient calculated by Protparam (ExPASy-Artimo, 2012) from the peptide sequence. […]

[2] = system: R. gnavus ATCC 29149 wild-type; assay: Growth on sole carbon source, wild-type strain; format: cell-based; conditions: 11.1 mM in YCFA, anaerobic
Experimental: R. gnavus ATCC 29149 was routinely grown in an anaerobic cabinet (Don Whitley, Shipley, UK) in BHI-YH as previously described (Crost et al., 2013). Growth on single carbon sources utilized anaerobic basal YCFA medium (Duncan et al., 2002) supplemented with 11.1 mM of specific mono- or oligosaccharides (2,7-anhydro-Neu5Ac, 3'Sialyllactose (3'SL) or glucose). The bacteria were grown to late exponential phase for RNA extraction, the culture was performed in 14 ml tubes. Growth was determined spectrophotometrically by monitoring changes in optical density at […] compared to the same medium without bacterium (ΔOD595 nm) hourly for 10 hours.
(§1) The ability of the mutants to utilise sialic acids and sialoconjugates was assessed by supplementing YCFA with 11.1 mM of 2,7-anhydro-Neu5Ac, 3'SL, glucose or Neu5Ac in triplicate 200 μl cultures in 96-well microtiter plates. The OD595 nm was measured hourly for 10 h in an infinite F50 plate reader (Tecan, UK) housed within an anaerobic cabinet connected to Magellan V7.0 software.

[3] = system: R. gnavus ATCC 29149 nan deletion mutants; assay: Growth on sole carbon source, nan deletion mutants; format: cell-based; conditions: 11.1 mM in YCFA, anaerobic
Description: R. gnavus mutants were generated using the ClosTron methodology (Heap et al., 2010), which inserts an erythromycin resistance cassette into the gene of interest. Target sites were identified using the Pertuka method (Perutka et al., 2004). The re-targeted introns were synthesised and ligated into the pMTL007C-E2 vector by ATUM (MenloPark, USA). The plasmids were then transformed into E. coli CA434 using the heat-shock protocol, and the recombinant clones selected for chloramphenicol resistance. Recombinant E. coli cells were grown overnight in 10 ml LB, 1 ml of the overnight culture was pelleted and washed with PBS. The E. coli cell pellet was resuspended in 200 μl of an R. gnavus overnight culture and the cell suspension spotted onto a non-selective BHI-YH plate. […]
as §1

[4] = system: CC(=O)N[C@H]1[C@H]([C@H](O)[C@H](O)CO)OC(O)(C(=O)O)C[C@@H]1O; assay: purified protein, by the assay type; conditions: other: substrate of RgNanA; Michaelis-Menten fit; pH 7.0
Experimental: Aldolase cleavage was measured by monitoring the decrease in absorbance at 340 nm (A340 nm) as NADH is converted to NAD by lactate dehydrogenase in a coupled reaction where pyruvate is released from sialic acid by the aldolase. Reactions were performed in a 100 μl volume with final concentrations of 150 μM NADH (Sigma, St Louis, USA), 0.5 U LDH (Sigma, St Louis, USA), 10 mM sialic acid (Neu5Ac or 2,7-anhydro-Neu5Ac) and 1.5 μg purified RgNanA or EcNanA (E. coli aldolase CAS: 9027-60-5, Carbosynth, UK) in 50 mM Na-phosphate buffer (pH 7.0). The reactions were performed at 37° C. and monitored using FLUOstar OPTIMA (BMG LABTECH). For kinetics experiments, the sialic acid concentration was varied at 20, 10, 5, 4, 2, 1, 0.4, 0.2, 0.1 mM and the initial rate of reaction determined for each concentration in triplicate before analysis was performed by fitting the data to a Michaelis-Menten using Graph Pad Prism (V 5.03).
The substrate specificity of RgNanA was determined using a coupled activity assay where pyruvate released during the conversion of sialic acid to ManNAc is converted to lactate by a lactate dehydrogenase and the subsequent loss of absorbance at 340 nm measured as NADH is converted to NAD^+. A commercially available E. coli sialic acid aldolase (EcNanA) was included as a control and enzymes were tested for activity against 2,7-anhydro-Neu5Ac and Neu5Ac. […] The kinetic parameters of RgNanA were determined by calculating the initial rate of reaction with increasing Neu5Ac concentrations. A Michaelis-Menten curve was fitted to the data and kinetic parameters determined (FIG. 7b).

CC(=O)NC1C(O)CC2(C(=O)O)OC(C(O)CO)C1O2 (centres unmarked) [2,7-anhydro-Neu5Ac]
Kd [1]: 2240 nM

CC(=O)N[C@H]1[C@H]([C@H](O)[C@H](O)CO)O[C@@](O[C@H]2[C@@H](O)[C@@H](CO)O[C@@H](O[C@H]3[C@H](O)[C@@H](O)C(O)O[C@@H]3CO)[C@@H]2O)(C(=O)O)C[C@@H]1O (some centres unmarked) [3'SL, 3'-sialyllactose]
utilisation as a sole carbon source (growth) [2]: able to utilise
growth on substrate as sole carbon source [3]: no growth was detected

RgNanA (RUMGNA_02692, sialic acid aldolase) (Mediterraneibacter gnavus ATCC 29149)
Km [4]: 1473 ± 98 µM
kcat [4]: 2.757 ± 0.033 s⁻¹
